Assay results as given in patent US7659081B2, “Determination of AM-binding proteins and the association of adrenomedullin (AM) therewith” (The United States of America as represented by the …, priority 1999, dated 2010).

Legend:
[1] = target: T1, factor H (Homo sapiens, UniProt P08603); assay: Cofactor activity of factor H: C3b cleavage with factor I; format: biochemical; conditions: 24 hr at 37° C.
Protocol: FIG. 10 illustrates the effect of AM on factor H activity. C3b (104 kDa α′ chain and 71 kDa β chain) was incubated 24 hr at 37° C. with factor H, factor I, and various peptides. Cleavage of the C3b α′ chain produced three bands with molecular weights 68 kD, 43 kD, and 42 kD.
To measure the cofactor activity of factor H, C3b (28 pmols) was incubated with factor I (0.16 pmols) and factor H (0.16 pmols) in the presence or absence of AM and related peptides for 24 hr at 37° C. in a final volume of 50 μl of PBS. Samples were fractionated by SDS-PAGE using 4-12% Tris-Bis gels (Novex) under reducing conditions, and stained with Coomassie Blue. C3b and factor I were purchased from Advanced Research Technologies (San Diego, Calif.). FIGS. 10A and 10B.

[2] = test system: insulin secretion; conditions: cited from earlier work
[3] = target: T1, factor H; assay: Multi-well plate competition of fluorescein-labeled AM binding to factor H; parameters: purchased Sigma; conditions: 50 nM fluorescein-labeled AM; factor H 5 ng/well; increasing concentrations of unlabeled competitor
Protocol: Lane 1: horseradish peroxidase (5 μg), a glycosylated protein used as positive control; Lane 2: soybean trypsin inhibitor (5 μg), a non-glycosylated protein used as negative control; Lane 3: AMBP-1 (2 μg). […] Lane 1: isoelectric focusing markers; Lane 2: AMBP-1 (4 μg). […] Lane 1: AMBP-1 (100 ng); Lane 2: AMBP-1 (200 ng); Lane 3: commercially available human factor H (50 ng); Lane 4: human plasma (0.2 μl). […] Results represent one of two independent experiments. Values represent mean and standard deviation of three determinations. “B/B0” indicates the ratio of signals generated in the presence/absence of unlabeled competitor.
Alternatively, the AM/fH interaction was analyzed using a multi-well assay. In accordance with this assay, a 96-well polyvinylchloride (PVC) plate was coated with factor H (5 ng/well, Sigma, St. Louis, Mo.). The plate was blocked with a solution containing TBS, 0.1% ATC, and 0.1% TWEEN® 20 nonionic detergent, and then incubated with fluorescein-labeled AM (50 nM) for 2 hr. Prior to the development of the assay, the wells were incubated for various time periods with PBS or 3M NaSCN pH 7.4. Following this, the plate was washed and incubated with anti-fluorescein polyclonal antibody (1:1000, Molecular Probes) and ^125I-Protein A (Amersham Pharmacia Biotech). Radioactivity was determined using a gamma counter. FIG. 6B.

[4] = test system: AM-binding protein; assay: Competitive displacement of 125I-AM on radioligand blot strips; conditions: increasing concentrations, 10^−10 to 10^−6 M
Protocol: Further detection and characterization of AM-BPs were performed using radioligand blotting procedures similar to those described for IGF binding proteins in plasma (P. Hossenlopp et al., 1986, Anal. Biochem. 154:138-146). Briefly, plasma or serum from the ten species was diluted 1:5 with water and further mixed 1:2 with SDS Tris-glycineglycerol loading buffer and incubated for 10 min at 70° C. Plasma or serum volumes equivalent to 1.5 μl were loaded onto 10% acrylamide gels under non-reducing conditions. Proteins were separated at 115 v for 0.5 hr and transferred to 0.2 μm nitrocellulose using a semi-moist transfer (Bio-Rad Hercules, Calif.) at 18 v for 42 min. Molecular weight markers (29 kD, 43 kD, 66 kD, 78 kD, and 116 kD) were added to complementary lanes on each gel to assess the relative sizes of the resolved proteins.
Nitrocellulose blots were incubated for 15 min with 1.5% NP-40 (Sigma, St. Louis, Mo.). Nonspecific binding was further blocked with a 4 hr incubation of the nitrocellulose in phosphate buffered saline containing either 1% BSA (RIA Grade, SIGMA, St. Louis, Mo.) or 1% AHC. Incubations with radiolabeled recombinant human ^125I-AM were performed overnight at room temperature with agitation, with 80,000 CPM ^125I-hAM per 5 ml protein blocking matrix. […]

T1 sequence (P08603 19-1231): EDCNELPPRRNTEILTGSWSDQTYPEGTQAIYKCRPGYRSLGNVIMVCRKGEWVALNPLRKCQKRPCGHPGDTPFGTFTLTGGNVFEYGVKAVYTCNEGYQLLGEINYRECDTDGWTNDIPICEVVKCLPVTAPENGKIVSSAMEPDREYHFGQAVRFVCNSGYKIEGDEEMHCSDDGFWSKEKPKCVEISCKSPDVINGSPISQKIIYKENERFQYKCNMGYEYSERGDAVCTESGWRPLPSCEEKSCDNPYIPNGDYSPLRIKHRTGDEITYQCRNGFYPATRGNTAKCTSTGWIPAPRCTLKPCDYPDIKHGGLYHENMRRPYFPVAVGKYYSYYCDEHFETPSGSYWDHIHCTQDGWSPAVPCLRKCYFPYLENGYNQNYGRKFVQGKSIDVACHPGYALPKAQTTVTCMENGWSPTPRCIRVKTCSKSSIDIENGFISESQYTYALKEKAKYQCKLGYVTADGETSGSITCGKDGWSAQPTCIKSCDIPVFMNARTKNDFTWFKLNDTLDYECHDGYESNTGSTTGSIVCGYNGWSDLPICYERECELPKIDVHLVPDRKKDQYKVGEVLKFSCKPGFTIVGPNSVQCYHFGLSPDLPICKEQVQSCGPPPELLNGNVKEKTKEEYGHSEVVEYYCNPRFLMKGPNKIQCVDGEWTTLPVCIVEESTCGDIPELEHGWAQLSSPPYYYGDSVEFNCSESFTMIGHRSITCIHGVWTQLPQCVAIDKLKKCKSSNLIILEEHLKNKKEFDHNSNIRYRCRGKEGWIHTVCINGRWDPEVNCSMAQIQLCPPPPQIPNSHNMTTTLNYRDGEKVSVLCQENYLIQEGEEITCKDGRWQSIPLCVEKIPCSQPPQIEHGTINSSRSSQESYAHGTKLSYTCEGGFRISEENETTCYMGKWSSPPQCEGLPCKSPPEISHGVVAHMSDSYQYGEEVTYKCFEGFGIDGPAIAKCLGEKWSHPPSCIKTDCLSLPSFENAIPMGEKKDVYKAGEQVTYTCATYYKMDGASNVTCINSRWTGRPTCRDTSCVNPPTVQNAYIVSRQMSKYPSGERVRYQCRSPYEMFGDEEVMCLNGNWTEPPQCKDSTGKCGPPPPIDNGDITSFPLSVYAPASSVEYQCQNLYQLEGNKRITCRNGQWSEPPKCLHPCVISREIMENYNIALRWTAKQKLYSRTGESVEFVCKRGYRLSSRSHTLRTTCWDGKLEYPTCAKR

Compound: CC[C@H](C)[C@H](NC(=O)[C@H](CCC(N)=O)NC(=O)[C@H](Cc1c[nH]cn1)NC(=O)[C@H](C)NC(=O)[C@H](CC(C)C)NC(=O)[C@H](CCCCN)NC(=O)[C@H](CCC(N)=O)NC(=O)[C@@H](NC(=O)[C@@H](NC(=O)[C@@H]1CSSC[C@H](NC(=O)CNC(=O)[C@H](Cc2ccccc2)NC(=O)[C@H](CO)NC(=O)[C@H](CCCNC(=N)N)NC(=O)[C@H](CC(C)C)NC(=O)CNC(=O)[C@H](CCC(N)=O)NC(=O)[C@H](Cc2ccccc2)NC(=O)[C@H](CC(N)=O)NC(=O)[C@H](CC(N)=O)NC(=O)[C@H](CCSC)NC(=O)[C@H](CO)NC(=O)[C@H](CCC(N)=O)NC(=O)[C@H](CCCNC(=N)N)NC(=O)[C@@H](N)Cc2ccc(O)cc2)C(=O)N[C@@H](CCCNC(=N)N)C(=O)N[C@@H](Cc2ccccc2)C(=O)NCC(=O)N[C@@H]([C@@H](C)O)C(=O)N1)[C@@H](C)O)C(C)C)C(=O)N[C@@H](Cc1ccc(O)cc1)C(=O)N[C@@H](CCC(N)=O)C(=O)N[C@@H](Cc1ccccc1)C(=O)N[C@H](C(=O)N[C@@H](CC(=O)O)C(=O)N[C@@H](CCCCN)C(=O)N[C@@H](CC(=O)O)C(=O)N[C@@H](CCCCN)C(=O)N[C@@H](CC(=O)O)C(=O)N[C@@H](CC(N)=O)C(=O)N[C@H](C(=O)N[C@@H](C)C(=O)N1CCC[C@H]1C(=O)N[C@@H](CCCNC(=N)N)C(=O)N[C@@H](CO)C(=O)N[C@@H](CCCCN)C(=O)N[C@H](C(=O)N[C@@H](CO)C(=O)N1CCC[C@H]1C(=O)N[C@@H](CCC(N)=O)C(=O)NCC(=O)N[C@@H](Cc1ccc(O)cc1)C(N)=O)[C@@H](C)CC)C(C)C)[C@@H](C)O [AM, Adrenomedullin]
- Effect on fH/fI-mediated cleavage of C3b [1]: enhances fH/fI-mediated cleavage of C3b
- Insulin secretion [2]: inhibits insulin secretion in a dose-dependent manner
- Effect on binding of fluorescein-labeled AM to factor H-coated plate [3]: competitively inhibited
- Displacement of 125I-AM from AMBPs [4]: linear competitive displacement
